Test results reported in patent US20030125253A1, “Novel protein, process for producing the same and use therof” (priority 2002, published 2003).

Legend:
Type in all cases: cell-based, human
SSP2 mRNA in IMR-32 cell = assay: Differentiation-dependent induction of SSP2 mRNA expression in IMR-32 cells (TaqMan PCR); settings: 10 μM BrDU, cultured for 14 days, RNA at 7 and 14 days, cells differentiated to neuron in morphology
Protocol: For conducting more detailed analysis of SSP2 expression, TaqMan PCR conditions were set. The primers used were Upper Primer (SEQ ID NO: 57) and Lower Primer (SEQ ID NO: 58), and the probe used for detection was shown by SEQ ID NO: 59. In TaqMan PCR, 250 nM of Upper Primer, 250 nM of Lower Primer, 75 nM of the probe and template DNA were mixed with TaqMan Universal Mixture, and SSP2 gene was quantified by real time PCR of 40 cycle of 15 seconds at 95° C. and 60 seconds at 60° C. IMR-32 cells were cultured overnight at […] cells/well (6 well plate), and cultured for 14 days under four different conditions of 1 mM dibutyl cycle AMP (db-cAMP), 10 μM Bromo deoxyuridine (BrDU), 1 mM db-cAMP/10 μM BrDU and no differentiation-inducing agent. RNA was extracted from cells at 7 days and 14 days, then, SSP2 mRNA was quantified by TaqMan PCR. Induction of expression of SSP2 mRNA was recognized in cells which were differentiated to neuron in terms of morphology by 10 μM BrDU (FIG. 8).

SSP1 mRNA in HepG2 cell = assay: Change of SSP1 mRNA expression in treated HepG2 cells (TaqMan PCR); settings: 24 hours in serum free D-MEM medium with the agent, 25-OH 5 μg/ml, βVLDL 100 μg-TC/ml, HPβCD 5 mM, 10% FBS
Protocol: For conducting more detailed analysis of SSP1 expression, TaqMan PCR conditions were set. The primers used were Upper Primer (SEQ ID NO: 54) and Lower Primer (SEQ ID NO: 55), and the probe used for detection was shown by SEQ ID NO: 56. In TaqMan PCR, 250 nM of Upper Primer, 250 nM of Lower Primer, 75 nM of the probe and template DNA were mixed with TaqMan Universal Mixture, and SSP1 gene was quantified by real time PCR of 40 cycle of 15 seconds at 95° C. and 60 seconds at 60° C.
After HepG2 cell was treated as shown in FIG. 7 for one day, RNA was extracted to perform a reverse transcription using oligo-dT as a primer. Then, change in the expression amount of SSP1 mRNA was analyzed using the quantification system of expression amount of SSP1 mRNA as shown in Example 6. Specifically, HepG2 cells were cultured on a 24-well plate, and incubated for 24 hours in a serum free D-MEM medium in the presence of 10% FBS (10% FBS), 5 μg/ml of 25-hydroxycholesterol (25-OH), 100 μg-TC/ml of rabbit βVLDL (βVLDL), 1 μM of Atrvastatin (ATOS), 5 mM hydroxypropyl-β-cyclodextiin (HPβCD), 10 μM progesterone (Progesterone) or 100 μM dibutyl-cyclic AMP (db-cAMP). The expression amount of SSP1 mRNA in RNA extracted from these cells was measured as a rate (%) to GAPDH mRNA measured as the internal standard.

[1] = test system: stable SSP1-overexpressing HepG2 cell; assay: ApoB lipoprotein secretion in stable SSP1-overexpressing HepG2 cells (sandwich EIA); settings: SSP1 stable expression HepG2 cell strains vs parent HepG2, 24 hours, 5% LPDS + oleate (BSA complex)
Protocol: SSP1 gene was subcloned into pcDNA3.1(+)-myc vector (Invitrogen), and the thus obtained expression plasmid for eucaryotic cell having the C-terminal Myc-tag was transfected into HepG2 cells by a lipofection method, and these cells were cultured in the presence of 500 ug/ml G418 to obtain G418-resistant strains. From these strains, 4 stable cell strains highly expressing SSP1 mRNA were obtained using the quantification, of expression amount of SSP1 mRNA by TaqMan PCR. A gene encoding amino acid no. 33-273 of SSP1 protein was subcloned into pET 21(+) vector (Novagen), and using the SSP1 partial protein produced in Escherichia coli as an antigen, a polyclonal antibody was prepared according to an ordinary method. The amino acid sequence of the antigen protein is shown by SEQ ID NO: (antigen AP-1). Using this antibody (AP-1), the expression of SSP1 protein in cell-extract of the four stable SSP1-expressing cell strains was investigated by a Western blotting method. […] For quantification of ApoB lipoprotein, a sandwich EIA method using an anti-human apoB goat polyclonal antibody and an anti-human apoB mouse monoclonal antibody was carried out. In the quantification, human LDL was used as a standard substance, and the concentration of ApoB lipoprotein secreted in the supernatant was represented as an equivalent human LDL value. […]

For `O=c1[nH]c(=O)n([C@H]2C[C@H](O)[C@@H](CO)O2)cc1Br` [BrDU, Bromo deoxyuridine], the “induction of expression of SSP2 mRNA” value (SSP2 mRNA in IMR-32 cell) was “Induction”.

hydroxypropyl-β-cyclodextiin [HPβCD] was tested, and the “change in the expression amount of SSP1 mRNA (rate to GAPDH mRNA)” value (SSP1 mRNA in HepG2 cell) was “increase”.

`CCCCCCCC/C=C\CCCCCCCC(=O)O` [oleic acid] was tested, and the “activity to promote apoB lipoprotein secretion by addition of oleic acid” value [1] was “disappeared”.

`C[C@H](CCCC(C)(C)O)[C@H]1CC[C@H]2[C@@H]3CC=C4C[C@@H](O)CC[C@]4(C)[C@H]3CC[C@]12C` [25OH, 25-hydroxycholesterol] was tested, and the “change in the expression amount of SSP1 mRNA (rate to GAPDH mRNA)” value (SSP1 mRNA in HepG2 cell) was “decrease”.
